Data: PMC7926352, “Synthesis, Characterization and In Vitro Evaluation of Novel 5-Ene-thiazolo[3,2-b][1,2,4]triazole-6(5H)-ones as Possible Anticancer Agents” (Molecules, 2021)

How the values were obtained:
[1] = test system: Ovarian Cancer cell lines
Leukemia cell lines = test system: Leukemia cell lines; set-up: LC50, values range inside panel: unit not given beside the values
IGROV1 = assay type: cell-based, human; conditions: IGROV1, Ovarian Cancer
[2] = test system: panel of approximately sixty human tumor cell lines; experiment: NCI-60 human tumor cell lines screen (SRB), full panel; assay type: cell-based
[3] = test system: Prostate Cancer cell lines; set-up: LC50, values range inside panel: unit not given beside the values
CNS Cancer cell lines = test system: CNS Cancer cell lines; set-up: LC50, values range inside panel: unit not given beside the values

With “Ethyl(Z)-4-(3-(4-chloro-2-((6-oxothiazolo[3,2-b][1,2,4]triazol-5(6H)-ylidene)methyl)phenyl)propanamido)benzoate [Compound 2i]” the CC50 (MOLT-4) was greater than 100 µM, the CC50 [1] was 68.7 µM and the CC50 (OVCAR-3) was 55 µM. For the same substance, the CC50 (Leukemia cell lines) was 99.2 µM, the “LC50, values range inside panel” value (Leukemia cell lines) was 95.49– >100 and the CC50 (OVCAR-4) was greater than 100 µM. The CC50 (HT29) was 49 µM, the CC50 (SF-268) was greater than 100 µM and the CC50 (NCI-H522) was 72.4 µM. For the same substance, the CC50 (MCF7) was 50.1 µM, the CC50 (HCT-116) was 55 µM and the GI50 (IGROV1) was 6.6 µM. For the same substance, the TGI (IGROV1) was 20.89 µM, the CC50 (SK-MEL-5) was 46.8 µM and the CC50 (SK-MEL-2) was 77.6 µM. For the same substance, the CC50 (U251) was 43.6 µM, the CC50 [2] was 63.1 µM and the CC50 (BT-549) was 60.2 µM. The CC50 (SNB-75) was greater than 100 µM, the CC50 (HOP-62) was 53.7 µM and the CC50 (786-0) was 51.3 µM. For the same substance, the CC50 (NCI/ADR-RES) was greater than 100 µM, the CC50 (UACC-257) was 63.1 µM and the CC50 (SW-620) was 46.8 µM. The CC50 (M14) was 58.9 µM, the CC50 (CCRF-CEM) was greater than 100 µM and the CC50 (Melanoma cell lines) was 42.6 to 77.6 µM. It also gave a CC50 (OVCAR-5) of 58.9 µM, a CC50 (MDA-MB-435) greater than 100 µM and a CC50 (CAKI-1) of 55 µM. For the same substance, the CC50 (K-562) was greater than 100 µM, the CC50 (MDA-MB-231/ATCC) was greater than 100 µM and the CC50 (RXF 393) was 58.9 µM. The CC50 (SF-539) was 50.1 µM, the CC50 (EKVX) was 50.1 µM and the CC50 (HCT-15) was 55 µM. It also gave a CC50 (Renal Cancer cell lines) of 55 µM, a CC50 (HOP-92) of 83.2 µM and a CC50 (NCI-H460) of 56.2 µM. The CC50 (SK-MEL-28) was 49 µM, the CC50 [3] was 68.2 µM and the “LC50, values range inside panel” value [3] was 36.30– >100. The CC50 (A498) was 56.2 µM, the CC50 (UACC-62) was 51.3 µM and the CC50 (SR) was greater than 100 µM. For the same substance, the CC50 (HCC-2998) was 66.1 µM, the CC50 (SF-295) was 51.3 µM and the CC50 (CNS Cancer cell lines) was 66.2 µM. The “LC50, values range inside panel” value (CNS Cancer cell lines) was 43.65– >100, the CC50 (DU-145) was 36.3 µM and the CC50 (SN12C) was 58.9 µM.
